Assay results: PubChem BioAssay AID608 (Sanford-Burnham Center for Chemical Genomics, 2007)
Calls of active or inactive are those of the source. How the calls were made is not given here.

molecular target: Peptidyl-prolyl cis-trans isomerase FKBP1A (Homo sapiens) (UniProt P62942); assay: FKBP12 binders, biophysical, NMR detection (AID 608); details: NMR binding, purified FKBP12
Sequence (P62942 whole entry, looked up): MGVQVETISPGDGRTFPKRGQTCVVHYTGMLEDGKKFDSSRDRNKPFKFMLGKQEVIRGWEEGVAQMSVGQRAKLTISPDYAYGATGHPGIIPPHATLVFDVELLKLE

**Q.** For `O=C(O)c1coc2c1C(=O)CCC2`, which Kd is on record?
**A.** The Kd was > 4 mM (inactive).

**Q.** With `N#CCSc1nnc2ccc3ccccc3n12` as the compound, how does the Kd read?
**A.** The Kd was > 4 mM (inactive).

**Q.** With `O=C(c1ncc[nH]1)c1ccccc1C(=O)N1CCOCC1` as the compound, how does the Kd read?
**A.** The Kd was > 4 mM (inactive).

**Q.** Which Kd does the source give for `COC(=O)c1cccc(Cn2nnc3ccccc3c2=O)c1` here?
**A.** Its Kd is > 4 mM (inactive).

**Q.** Which Kd does the source give for `NCc1c[nH]c2ccccc12` here?
**A.** Its Kd is > 4 mM (inactive).

**Q.** `CN1C(=O)CC[C@H]1c1cccnc1` was tested. Which Kd did it give?
**A.** The Kd was > 4 mM (inactive).

**Q.** Which Kd does the source give for `CC1(C)NC(=O)N(CN2CCOCC2)C1=O` here?
**A.** The Kd was > 4 mM (inactive).

**Q.** For `O=C(O)CCCNC(=O)c1ccccc1C(=O)O`, which Kd is on record?
**A.** The Kd was > 4 mM (inactive).

**Q.** For `CC[C@@]1(O)C[C@H](O)c2c(cc3c(c2O)C(=O)c2c(O)ccc(O)c2C3=O)[C@H]1C(=O)OC`, which Kd is on record?
**A.** Its Kd is > 4 mM (inactive).

**Q.** For `COC(=O)c1cccs1`, which Kd is on record?
**A.** The Kd was > 4 mM (inactive).

**Q.** How did the Kd turn out when `NCc1ccccc1N1CCOCC1` was run?
**A.** Its Kd is > 4 mM (inactive).

**Q.** How did the Kd turn out when `O=C1CCC(=O)N1c1ccc(O)cc1` was run?
**A.** Its Kd is > 4 mM (inactive).

**Q.** `Cc1nn2c(-c3ccco3)nnc2c2ccccc12` was tested. Which Kd did it give?
**A.** Its Kd is > 4 mM (inactive).

**Q.** `OCc1cccc2c1OCCO2` was tested. Which Kd did it give?
**A.** Its Kd is > 4 mM (inactive).

**Q.** For `CNC(=O)Nc1cccc(C(F)(F)F)c1`, which Kd is on record?
**A.** Its Kd is > 4 mM (inactive).

**Q.** `C=CCSCC=C` was tested. Which Kd did it give?
**A.** Its Kd is > 4 mM (inactive).

**Q.** For `CC(C)CCCC(C)[C@H]1CCC2C3CC=C4CC(=O)CC[C@]4(C)C3CC[C@@]21C` (stereo not given in full), which Kd is on record?
**A.** Its Kd is > 4 mM (inactive).

**Q.** For `O=C(O)Cn1cc(C(=O)C2CC2)c2ccccc21`, which Kd is on record?
**A.** The Kd was > 4 mM (inactive).

**Q.** With `COc1ccc(C2(C)CC(=O)NC2=O)cc1` (stereo not given) as the compound, how does the Kd read?
**A.** The Kd was > 4 mM (inactive).

**Q.** Which Kd does the source give for `O=c1[nH]nnc2sc3c(c12)CCCC3` here?
**A.** The Kd was > 4 mM (inactive).

**Q.** How did the Kd turn out when `CN1C(=O)/C(=C\c2ccc[nH]2)SC1=S` was run?
**A.** Its Kd is > 4 mM (inactive).

**Q.** How did the Kd turn out when `COc1ccc2c(c1)[n+](=O)c(C(C)=O)c(C)n2[O-]` was run?
**A.** Its Kd is > 4 mM (inactive).

**Q.** For `NC(=S)NC1CCS(=O)(=O)C1` (stereo not given), which Kd is on record?
**A.** Its Kd is > 4 mM (inactive).

**Q.** `COC(=O)C[C@@H]1C2(C)C(=O)[C@@H](CC3=C4C=C(OC)O[C@@H](c5ccoc5)[C@]4(C)CCC32)[C@H](O)C1(C)C` (stereo not given in full) was tested. Which Kd did it give?
**A.** Its Kd is > 4 mM (inactive).

**Q.** How did the Kd turn out when `N#Cc1nc(N2CCCCC2)nc(N2CCOCC2)n1` was run?
**A.** The Kd was > 4 mM (inactive).

**Q.** With `CC12CN(CC#N)CC(C)(CN(CC#N)C1)C2=O` as the compound, how does the Kd read?
**A.** Its Kd is > 4 mM (inactive).

**Q.** For `Cn1c(SCC(=O)NCCO)nc2ccccc2c1=O`, which Kd is on record?
**A.** Its Kd is > 4 mM (inactive).

**Q.** How did the Kd turn out when `Cc1nnc(SCc2ccc(F)cc2)s1` was run?
**A.** The Kd was > 4 mM (inactive).

**Q.** `CC(=O)Nc1ccc(Cl)c(C(N)=O)c1` was tested. Which Kd did it give?
**A.** The Kd was > 4 mM (inactive).

**Q.** How did the Kd turn out when `CS(=O)(=O)c1ccc2nc(N)sc2c1` was run?
**A.** The Kd was > 4 mM (inactive).

**Q.** Which Kd does the source give for `O=C1N/C(=N\c2ccccn2)SC1Cc1ccccc1` (stereo not given) here?
**A.** Its Kd is > 4 mM (inactive).

**Q.** With `Cc1cc(=O)n(CC(C)C)c(O)c1C#N` as the compound, how does the Kd read?
**A.** Its Kd is > 4 mM (inactive).

**Q.** For `c1ccn(Cc2ccncc2)c1`, which Kd is on record?
**A.** The Kd was > 4 mM (inactive).

**Q.** Which Kd does the source give for `COc1c(C(=O)N2CCCC2)ccc2ccccc12` here?
**A.** The Kd was > 4 mM (inactive).

**Q.** How did the Kd turn out when `COc1cc(C(=O)O[C@H]2CC[C@@]3(C)[C@@H]4CC[C@H]5[C@]6(O)C[C@H](O)[C@@]7(O)[C@@H](CN8C[C@@H](C)CC[C@H]8[C@@]7(C)O)[C@]6(O)C[C@@]53OC24O)cc(OC)c1OC` was run?
**A.** Its Kd is > 4 mM (inactive).

**Q.** With `Cn1c(=O)n(CC(=O)Nc2cccnc2)c2ccccc21` as the compound, how does the Kd read?
**A.** Its Kd is > 4 mM (inactive).

**Q.** How did the Kd turn out when `CCC(C)C(=O)O[C@H]1[C@H](O)C2C(CN3CC(C)CCC3[C@@]2(C)O)C2C[C@]34O[C@]5(O)C(OC(=O)C(C)(O)C(C)O)CC[C@@]3(C)C5C(OC(C)=O)[C@@H](OC(C)=O)C4[C@@]21O` (stereo not given in full) was run?
**A.** The Kd was > 4 mM (inactive).

**Q.** Which Kd does the source give for `Nc1nncn1C(=O)c1ccccc1Cl` here?
**A.** The Kd was > 4 mM (inactive).

**Q.** Which Kd does the source give for `CC(=O)Nc1ccc(NC(=O)/C=C\C(=O)O)cc1` here?
**A.** Its Kd is > 4 mM (inactive).

**Q.** Which Kd does the source give for `O=c1cc(-c2ccc(O)cc2)oc2cc(O[C@@H]3O[C@H](CO)[C@@H](O)[C@H](O)[C@H]3O[C@@H]3OC[C@](O)(CO)[C@H]3O)cc(O)c12` here?
**A.** The Kd was > 4 mM (inactive).

**Q.** With `O=c1/c(=C/c2cccs2)sc2ncnn12` as the compound, how does the Kd read?
**A.** The Kd was > 4 mM (inactive).

**Q.** `CCOC(=O)c1c(C)[nH]c2ccc(O)cc12` was tested. Which Kd did it give?
**A.** The Kd was > 4 mM (inactive).

**Q.** For `Cc1cc(OCC(=O)N2CC(C)OC(C)C2)cc(C)c1Cl` (stereo not given), which Kd is on record?
**A.** Its Kd is > 4 mM (inactive).

**Q.** With `CCOc1cccc(C(=O)c2ccc(O)c(O)c2O)c1` as the compound, how does the Kd read?
**A.** Its Kd is > 4 mM (inactive).

**Q.** For `Nc1ccc(Cc2ccncc2)cc1`, which Kd is on record?
**A.** The Kd was > 4 mM (inactive).

**Q.** For `C[C@@H]1OC(O[C@H]2C(O[C@H]3CC[C@@]4(C)C(CC[C@]5(C)C4CC=C4C6CC(C)(C)CC[C@]6(C(=O)O)CC[C@]45C)[C@]3(C)CO)OC[C@H](O)[C@@H]2O)[C@H](O)[C@H](O)[C@H]1O` (stereo not given in full), which Kd is on record?
**A.** The Kd was > 4 mM (inactive).

**Q.** Which Kd does the source give for `O=C1C2CCCCC2C(=O)N1c1nccs1` (stereo not given) here?
**A.** Its Kd is > 4 mM (inactive).

**Q.** For `Cc1c(O)c(O)cc2c1CC=C1[C@@]2(C)CC[C@@]2(C)C3C[C@](C)(C(=O)O)CC[C@]3(C)CC[C@]12C` (stereo not given in full), which Kd is on record?
**A.** The Kd was > 4 mM (inactive).

**Q.** Which Kd does the source give for `C[C@@H]1CC[C@@]23CCC4(C)[C@@](C=CC5[C@@]6(C)CCC(=O)C(C)(C)C6CC[C@]54C)(OC2=O)C3[C@H]1C` (stereo not given in full) here?
**A.** The Kd was > 4 mM (inactive).

**Q.** With `O=[n+]1cc(-c2ccccc2)n([O-])c2c1CCC2` as the compound, how does the Kd read?
**A.** Its Kd is > 4 mM (inactive).

**Q.** `COc1ccc(-c2coc3c(OC)c(OC)cc(OC)c3c2=O)cc1` was tested. Which Kd did it give?
**A.** The Kd was > 4 mM (inactive).

**Q.** How did the Kd turn out when `C[C@@H]1CC[C@@]2(NC1)O[C@H]1C[C@H]3C4CC=C5C[C@@H](O)CC[C@]5(C)C4CC[C@]3(C)C1[C@@H]2C` (stereo not given in full) was run?
**A.** Its Kd is > 4 mM (inactive).

**Q.** How did the Kd turn out when `C=C[C@@H](C1=CC(=O)C(OC)=C(OC)C1=O)c1ccccc1` was run?
**A.** Its Kd is > 4 mM (inactive).

**Q.** How did the Kd turn out when `O=C(Nc1ccccc1)NC1CCS(=O)(=O)C1` (stereo not given) was run?
**A.** Its Kd is > 4 mM (inactive).

**Q.** `CC1(C)NCCN2C(=O)CSC21` (stereo not given) was tested. Which Kd did it give?
**A.** Its Kd is > 4 mM (inactive).
